Assay results taken from patent US8431593B2, “Heteroaryl amide derivatives” (H. Lundbeck A/S, priority 2006, dated 2013).

Biological target: T1, P2X7 receptor (Homo sapiens, UniProt Q99572)
T1 construct: host or cells: SH-SY5Y
T1 sequence (Q99572 1-595): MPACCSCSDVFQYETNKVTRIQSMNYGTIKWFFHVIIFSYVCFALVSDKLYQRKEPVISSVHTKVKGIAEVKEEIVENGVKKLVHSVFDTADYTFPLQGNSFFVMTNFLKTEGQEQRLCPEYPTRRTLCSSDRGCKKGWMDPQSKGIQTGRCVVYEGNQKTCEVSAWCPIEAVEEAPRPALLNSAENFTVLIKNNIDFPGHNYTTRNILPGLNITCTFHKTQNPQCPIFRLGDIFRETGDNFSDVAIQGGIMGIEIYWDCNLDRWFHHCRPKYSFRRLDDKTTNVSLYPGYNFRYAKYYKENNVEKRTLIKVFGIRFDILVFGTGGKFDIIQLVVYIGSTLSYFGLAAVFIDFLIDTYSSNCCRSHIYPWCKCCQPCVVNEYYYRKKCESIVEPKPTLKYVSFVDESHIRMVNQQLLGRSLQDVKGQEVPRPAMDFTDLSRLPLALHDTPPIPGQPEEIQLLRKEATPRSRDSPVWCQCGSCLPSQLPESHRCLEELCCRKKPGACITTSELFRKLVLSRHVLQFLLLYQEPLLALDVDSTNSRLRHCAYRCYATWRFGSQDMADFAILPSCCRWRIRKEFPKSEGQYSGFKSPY
Experiment: P2X7 calcium mobilization assay, high throughput, antagonist activity (Example 4A)
Assay type: cell-based
Details: 50% decrease in the fluorescence response of cells exposed to 80 μM of 2′(3′)-O-(4-benzoyl-benzoyl)adenosine 5′-triphosphate; Example 4A; read-out: IC50
Outline: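 Cells plated 100,000/well the day before; after 1 h dye loading and one rinse, cells were preincubated 1 h at room temperature with test compound. Calcium mobilization then read on FLIPR^TETRA; maximum RFU corrected by subtracting mean no-agonist response and referenced to mean agonist-control maximum.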

Structure (SMILES)	IC50
CC(C)c1ccc(CN(C)C(=O)c2cn3c(C(=O)NCC45CC6CC(CC(C6)C4)C5)cccc3n2)cn1 [Compound 717, 5-N-(adamantan-1-ylmethyl)-2-N-[(6-isopropylpyridin-3-yl)methyl]-2-N-methylimidazo[1,2-a]pyridine-2,5-dicarboxamide]	< 2000 nM
Cn1cc2c(n1)CCN(C(=O)c1cn3c(C(=O)NCC45CC6CC(CC(C6)C4)C5)cccc3n1)C2 [Compound 718, N-(adamantan-1-ylmethyl)-2-[(2-methyl-2,4,6,7-tetrahydro-5H-pyrazolo[4,3-c]pyridin-5-yl)carbonyl]imidazo[1,2-a]pyridine-5-carboxamide]	< 2000 nM
O=C(NCC12CC3CC(CC(C3)C1)C2)c1cccc2nc(C(=O)N3CCC(N4CCCC4)C3)cn12 (stereo not drawn) [Compound 719, N-(adamantan-1-ylmethyl)-2-(1,3′-bipyrrolidin-1′-ylcarbonyl)imidazo [1,2-a]pyridine-5-carboxamide]	< 2000 nM
COCCN(C)C1CCN(C(=O)c2cn3c(C(=O)NCC45CC6CC(CC(C6)C4)C5)cccc3n2)CC1 [Compound 720, N-(adamantan-1-ylmethyl)-2-({4-[(2-methoxyethyl)(methyl)amino]piperidin-1-yl}carbonyl)imidazo[l, 2-a]pyridine-5-carboxamide]	< 2000 nM
O=C(NCC12CC3CC(CC(C3)C1)C2)c1cccc2nc(C(=O)N3CCN(C4CCOCC4)CC3)cn12 [Compound 721, N-(adamantan-1-ylmethyl)-2-{[4-(tetrahydro-2H-pyran-4-yl)piperazin-1-yl]carbonyl}imidazo[1,2-a]pyridine-5-carboxamide]	< 2000 nM
Cn1ncc2c1CCN(C(=O)c1cn3c(C(=O)NCC45CC6CC(CC(C6)C4)C5)cccc3n1)C2 [Compound 723, N-(adamantan-1-ylmethyl)-2-[(1-methyl-1,4,6,7-tetrahydro-5H-pyrazolo[4,3-c]pyridin-5-yl)carbonyl]imidazo[1,2-a]pyridine-5-carboxamide]	< 2000 nM
N[C@@H]1CCCN(C(=O)c2cn3c(C(=O)NCC45CC6CC(CC(C6)C4)C5)cccc3n2)C1 [Compound 724, N-(adamantan-1-ylmethyl)-2-{[(3R)-3-aminopiperidin-1-yl]carbonyl}imidazo[1,2-a]pyridine-5-carboxamide]	< 2000 nM
N[C@@H]1CCN(C(=O)c2cn3c(NC(=O)CC45CC6CC(CC(C6)C4)C5)cccc3n2)C1 [Compound 725, 2-adamantan-1-yl-N-(2-{[(3R)-3-aminopyrrolidin-1-yl]carbonyl}imidazo[1,2-a]pyridin-5-yl)acetamide]	< 2000 nM
O=C(NCC12CC3CC(CC(C3)C1)C2)c1cccc2nc(CC(=O)N3CC[C@@H](NCCO)C3)cn12 [Compound 726, N-(adamantan-1-ylmethyl)-2-(2-{(3R)-3-[(2-hydroxyethyl)amino]pyrrolidin-1-yl}-2-oxoethyl) imidazo[1,2-a]pyridine-5-carboxamide]	< 2000 nM
O=C(NCC12CC3CC(CC(C3)C1)C2)c1cccc2nc(Cn3cnnn3)cn12 [Compound 727, N-(adamantan-1-ylmethyl)-2-(1H-tetrazol-1-ylmethyl) imidazo[1,2-a]pyridine-5-carboxamide]	< 2000 nM
CCOC(=O)C(Cc1cn2c(C(=O)NCC34CC5CC(CC(C5)C3)C4)cccc2n1)C(=O)OC(C)(C)C (stereo not drawn) [Compound 728, tert-butyl ethyl ({5-[(adamantan-1-ylmethyl)carbamoyl]imidazo[1,2-a]pyridin-2-yl}methyl)malonate]	< 2000 nM
CC(C)CC(CNC(=O)c1cccc2nc(Cn3ccccc3=O)cn12)c1cccnc1 (stereo not drawn) [Compound 729, N-(4-methyl-2-pyridin-3-ylpentyl)-2-[(2-oxopyridin-1(2H)-yl)methyl] imidazo[1,2-a]pyridine-5-carboxamide]	< 2000 nM
O=C(NCC12CC3CC(CC(C3)C1)C2)c1cccc2nc(C(Cc3cccnc3)C(=O)O)cn12 (stereo not drawn) [Compound 730, 2-{5-[(adamantan-1-ylmethyl)carbamoyl]imidazo[1,2-a]pyridin-2-yl}-3-pyridin-3-ylpropanoic acid]	< 2000 nM
CC(C)(Cc1cn2c(C(=O)NCC34CC5CC(CC(C5)C3)C4)cccc2n1)C(=O)O [Compound 731, 3-{5-[(adamantan-1-ylmethyl)carbamoyl]imidazo[1,2-a]pyridin-2-yl}-2,2-dimethylpropanoic acid]	< 2000 nM
O=C(NCC12CC3CC(CC(C3)C1)C2)c1cccc2nc(C(Cc3ccccn3)C(=O)O)cn12 (stereo not drawn) [Compound 732, 2-{5-[(adamantan-1-ylmethyl)carbamoyl]imidazo[1,2-a]pyridin-2-yl}-3-pyridin-2-ylpropanoic acid]	< 2000 nM
O=C(NCC12CC3CC(CC(C3)C1)C2)c1cccc2nc(CC3(C(=O)O)SCCS3)cn12 [Compound 733, 2-({5-[(adamantan-1-ylmethyl)carbamoyl]imidazo[1,2-a]pyridin-2-yl}methyl)-1,3-dithiolane-2-carboxylic acid]	< 2000 nM
O=C(NCC12CC3CC(CC(C3)C1)C2)c1cccc2nc(C(Cc3ccncc3)C(=O)O)cn12 (stereo not drawn) [Compound 734, 2-{5-[(adamantan-1-ylmethyl)carbamoyl]imidazo[1,2-a]pyridin-2-yl}-3-pyridia-4-ylpropanoic acid]	< 2000 nM
CCOC(=O)C(Cc1ccncc1)c1cn2c(C(=O)NCC34CC5CC(CC(C5)C3)C4)cccc2n1 (stereo not drawn) [Compound 735, ethyl 2-{5-[(adamantan-1-ylmethyl)carbamoyl]imidazo[1,2-a]pyridin-2-yl}-3-pyridin-4-ylpropanoate]	< 2000 nM
CCOC(=O)C(Cc1ccccn1)c1cn2c(C(=O)NCC34CC5CC(CC(C5)C3)C4)cccc2n1 (stereo not drawn) [Compound 736, ethyl 2-{5-[(adamantan-1-ylmethyl)carbamoyl]imidazo[1,2-a]pyridin-2-yl}-3-pyridin-2-ylpropanoate]	< 2000 nM
O=C(O)c1nnnn1Cc1cn2c(C(=O)NCC34CC5CC(CC(C5)C3)C4)cccc2n1 [Compound 737, 1-({5-[(adamantan-1-ylmethyl)carbamoyl]imidazo[1,2-a]pyridin-2-yl}methyl)-1H-tetrazole-5-carboxylic acid]	< 2000 nM
CC(C)CC(CNC(=O)c1cccc2nc(CN3CC[C@@H](N)C3)cn12)C1CCCCC1 (stereo partly drawn) [Compound 739, 2-[(3-aminopyrrolidin-1-yl)methyl]-N-(2-cyclohaxyl-4-methylpentyl)imidazo [1,2-a]pyridine-5-carboxamide]	< 2000 nM
CN(C)C1CCCN(C(=O)Cc2cn3c(C(=O)NCC45CC6CC(CC(C6)C4)C5)cccc3n2)C1 (stereo not drawn) [Compound 740, N-(adamantan-1-ylmethyl)-2-{2-[3-(dimethylamino)piperidin-1-yl]-2-oxoethyl}imidazo[1,2-a]pyridine-5-carboxamide]	< 2000 nM
CC(COS(C)(=O)=O)c1cn2c(C(=O)NCC34CC5CC(CC(C5)C3)C4)cccc2n1 (stereo not drawn) [Compound 741, 2-{5-[(adamantan-1-ylmethyl)carbamoyl]imidazo[1,2-a]pyridin-2-yl}propyl methanesulfonate]	< 2000 nM
CC(C)N[C@@H]1CCCN(C(=O)Cc2cn3c(C(=O)NCC45CC6CC(CC(C6)C4)C5)cccc3n2)C1 [Compound 742, N-(adamantan-1-ylmethyl)-2-{2-[(3R)-3-(isopropylamino)piperidin-1-yl]-2-oxoethyl}imidazo[1,2-a]pyridine-5-carboxamide]	< 2000 nM
CC(C)CC(CNC(=O)c1cccc2nc(CSCCN)cn12)c1cccnc1 (stereo not drawn) [Compound 744, 2-{[(2-aminoethyl)thio]methyl}-N-(4-methyl-2-pyridin-3-ylpentyl)imidazo [1,2-a]pyridine-5-carboxamide]	< 2000 nM
CC(C)N[C@@H]1CCCN(C(=O)c2cn3c(C(=O)NCC45CC6CC(CC(C6)C4)C5)cccc3n2)C1 [Compound 745, N-(adamantan-1-ylmethyl)-2-{[(3R)-3-(isopropylamino)piperidin-1-yl]carbonyl}imidazo[1,2-a]pyridine-5-carboxamide]	< 2000 nM
CC(C)CC(CNC(=O)c1cccc2nc(C(=O)N3CC[C@@H](N)C3)cn12)c1cccnc1 (stereo partly drawn) [Compound 746, 2-[(3-aminopyrrolidin-1-yl)carbonyl]-N-(4-methyl-2-pyridin-3-ylpentyl) imidazo[1,2-a]pyridine-5-carboxamide]	< 2000 nM
O=C(NCC12CC3CC(CC(C3)C1)C2)c1cccc2nc(C(=O)N3CC[C@@H](NCCO)C3)cn12 [Compound 747, N-(adamantan-1-ylmethyl)-2-({3-[(2-hydroxyethyl)amino]pyrrolidin-1-yl}carbonyl)imidazo[1,2-a]pyridine-5-carboxamide]	< 2000 nM
CC(CC#N)c1cn2c(C(=O)NCC34CC5CC(CC(C5)C3)C4)cccc2n1 (stereo not drawn) [Compound 748, N-(adamantan-1-ylmethyl)-2-(2-cyano-1-methylethyl) imidazo[1,2-a]pyridine-5-carboxamide]	< 2000 nM
CC(C(=O)N1CCC[C@@H](N)C1)c1cn2c(C(=O)NCC34CC5CC(CC(C5)C3)C4)cccc2n1 (stereo partly drawn) [Compound 751, N-(adamantan-1-ylmethyl)-2-[2-(3-aminopiperidin-1-yl)-1-methyl-2-oxoethyl]imidazo [1,2-a]pyridine-5-carboxamide]	< 2000 nM
